Source: patent US11369614B2, “Telodendrimers with riboflavin moieties and nanocarriers and methods of making and using same” (priority 2017, dated 2022)

Test system: SKOV3 xenograft tumor
Test: In vivo and ex vivo tumor targeting by fluorescence imaging
Design: species or system nude mice
Conditions: i.v.
Protocol: Raji lymphoma, MDA-MB-231, and SKOV3 xenograft tumor bearing mice model were established by subcutaneous injection of 1×10^7 cells in 100 μL of Matrigel and PBS (1:1 v/v) at the right or left flank of female nude mice aged 4-6 weeks. […] Then the DiD-DOX co-loaded Rf-containing nanoformulations were filtered with 0.22 am sterile filter. Free DiD in PBS was used as the control group. All the formulations were intravenously injected through tail vein. The mice were anaesthetized and imaged by IVIS® (In vivo Imaging System) 200 (perkinElmer) at 0.5, 1, 2, 4, 8, 24, 48, 72 h different time points with the ex/em 625/700 nm. Finally, the mice were euthanized, tumor and all the major organs were taken out for ex vivo imaging. Living Image software (Caliper Life Sciences) were used to define and measure the fluorescence intensity in the place of interest.
Mice were euthanized in the following day. […] The nuclei were stained by DAPI.

CCCCCCCCCCCCCCCCCCN1/C(=C/C=C/C=C/C2=[N+](CCCCCCCCCCCCCCCCCC)c3ccccc3C2(C)C)C(C)(C)c2ccccc21.[O-][Cl+3]([O-])([O-])[O-] [free DiD, 1,1′-dioctadecyl-3,3,3,3′,3′-tetramethylindodicarbocyanine perchlorate]
tumor accumulation (in vivo imaging): No specific tumor accumulation
